According to patent publication US20220184231A1, “CLOSED-ENDED DNA (CEDNA) AND IMMUNE MODULATING COMPOUNDS” (Generation Bio Co., priority 2019, published 2022):
Entries after “also recorded” stand apart in the source; their conditions may differ.

Assays:
Assay type in all cases: in vivo
IL-6 = assay: Cytokine analysis of serum samples after administration: IL-6; details: male CD-1 mice, LNP-ceDNA 0.5 mg/kg i.v.; relative to ceDNA treatment alone
Source text: (§1) FIGS. 6A, 6B and 6C provide graphs showing data from the experiments described in Example 6.

[1] = tested on: luciferase transgene expression from ceDNA vector; assay: In-life IVIS imaging of luciferase expression from ceDNA vector; details: male CD-1 mice, LNP-ceDNA 0.5 mg/kg i.v., day 4 and day 7, compared with ceDNA/polyC group
Description: A ceDNA vector encoding luciferase as the transgene (e.g., SEQ ID NO: 56), with a wild-type AAV2 left ITR and a mutant right ITR and a hAAT promoter, methylated to eliminate free CpG, was used. The ceDNA vector was prepared as described above. […] Four replicates were included in each sample group. Body weights were recorded on days 0, 1, 2, 3, 7, 14, 21 and 28. In-life imaging was performed on days 4, 7, 14, 21, and 28 using an in vivo imaging system (IVIS). For the imaging, each mouse was injected with luciferin at 150 mg/kg via intraperitoneal injection at 2.5 mL/kg. After 15 minutes, each mouse was anaesthetized and imaged.

TNF-alpha = assay: Cytokine analysis of serum samples after administration: TNF-alpha; details: male CD-1 mice, LNP-ceDNA 0.5 mg/kg i.v.; relative to ceDNA treatment alone
Source text: as §1

RANTES = assay: Cytokine analysis of serum samples after administration: RANTES; details: male CD-1 mice, LNP-ceDNA 0.5 mg/kg i.v.; relative to ceDNA treatment alone
Source text: as §1

cytokines = assay: Cytokine analysis of serum samples after administration: other cytokines; details: male CD-1 mice, LNP-ceDNA 0.5 mg/kg i.v.; cytokines other than IL-6, TNF-alpha, RANTES
Source text: as §1

dexamethasone palmitate
induction of IL-6 (serum level) (IL-6): significantly less induction; also recorded: significantly reduced | total flux (luciferase expression from the ceDNA vector) [1]: no impact | induction of TNF-alpha (serum level) (TNF-alpha): significantly less induction; also recorded: significantly reduced | induction of RANTES (serum level) (RANTES): significantly less induction; also recorded: significantly reduced | levels of other cytokines (serum) (cytokines): not impacting
